Results taken from patent US20110230431A1, “FOSFOMYCIN/TOBRAMYCIN COMBINATIONS FOR THE TREATMENT AND PREVENTION OF OPHTHALMIC, OTOLOGICAL AND DERMATOLOGICAL INFECTIONS” (Gilead Sciences, Inc., priority 2008, published 2011).
Like-named read-outs stand apart in the source and are kept apart here.

Experiments:
P. aeruginosa [1] = assay: MIC by agar plate dilution method (CLSI); type: cell-based, Pseudomonas aeruginosa; settings: Pseudomonas aeruginosa, read-out: MIC
Source text: P. aeruginosa strains isolated from patients with cystic fibrosis (CF) were obtained from Children's Hospital and Regional Medical Center (Seattle, Wash.). Clinical isolates of Escherichia coli and Staphylococcus aureus were obtained from The Jones Group Laboratories (JMI; North Liberty, Iowa) and The Clinical Microbiology Institute (CMI; Wilsonville, Oreg.). P. aeruginosa 27853, S. aureus 29213, and E. coli 25922 served as quality control strains^1 and were obtained from The America Type Culture Collection (ATCC; Manassas, Va.). P. aeruginosa ATCC 27853, a fosfomycin and tobramycin susceptible strain, was used in macromolecular biosynthesis and tobramycin uptake experiments. Stock cultures were maintained at −80° C. in Cation-Adjusted Mueller-Hinton Broth (CAMHB) (Remel; Lenexa, Kans.) supplemented with 20% glycerol (VWR: West Chester, Pa.). Cultures for routine use were grown on tryptic soy agar plates+5% sheeps blood (PML Microbiologicals Inc.; Wilsonville, Oreg.) and stored at 4° C.
MICs were determined by the agar plate dilution method according to CLSI guidelines (National Committee for Clinical Laboratory Standards. M7-A6. 6th ed. Villanova (Pa.): NCCLS, 2003; M100-S14. Villanova (Pa.): NCCLS, 2004).

[2] = test system: Cell Wall Synthesis in P. aeruginosa ATCC 27853; assay: Macromolecular biosynthesis: 3H-N-acetyl-D-glucosamine incorporation; type: cell-based, Pseudomonas aeruginosa; settings: Pseudomonas aeruginosa, ATCC27853, at 2 h relative to no-drug control, single experiment
Protocol: Picataway, N.J.) and N-acetyl-D-Glucosamine (^3H-NAG) (GE Healthcare Bio-Sciences), respectively (Baum, E Z, Antimicrob Agents Chernother 2001; 45 (11): 3182-3188). A single colony of P. aeruginosa ATCC 27853 was inoculated into 10 mL of CAMHB and incubated for 16 h, at 37° C., 200 rpm in a shaking water bath. […] At various time points, 100 μl aliquots (triplicate) of culture were removed and added to 100 μl of 20% TCA (VWR) in 96-well flat bottom trays (VWR). Plates were incubated on crushed ice for 60 min to precipitate the incorporated ^3H-precursors. Samples were harvested onto glass fibre filters (GFC) (PerkinElmer; Waltham, Mass.). Filters were washed two times with 35 mL of normal saline to remove unincorporated isotope followed by one wash with 35 mL of 90% ETOH (VWR). Filters were dried under a lamp for 1 h to reduce remaining moisture and then sealed in bags containing 5 mL of scintillation cocktail (Betaplate Scint; PerkinElmer). Counts per minute (CPM) were determined using a Wallac MicroBeta Trilux (PerkinElmer). Mean CPM±standard deviation (SD) were determined for each treatment group. Background counts consisting of a media-only sample were subtracted from the no-drug and antibiotic treatment groups. The percent inhibition of incorporation was determined relative to the no-drug controls. The activities of the three drugs were compared by calculating the time to 50% inhibition (T1/2), and statistical differences at each time point were evaluated by the Analysis of Variance (ANOVA; GraphPad Prisma software package 3.03; GraphPad Software, Inc., San Diego, Calif.). Each curve represents 4 replicate experiments, each time point performed in triplicate.

S. aureus = type: cell-based, Staphylococcus aureus
Protocol: (§1) Development of resistance after a single exposure to antibiotic was determined for both clinical and reference isolates of P. aeruginosa, S. aureus, and E. coli. Late Log-phase cultures were centrifuged at 1,400×g at room temperature for 20 min and the cell pellets resuspended in CAMHB. […] The culture plates were incubated at 37° C. for 48 h and the number of colonies on each plate was enumerated manually. The spontaneous mutation frequency (SMF) resulting in antibiotic resistance was calculated by dividing the number of bacteria growing at the defined antibiotic concentration by the number of bacteria in the inoculum (Martinex, J L, Antimicrob Agents Chemother 2000; 44 (1):1771-1777).

P. aeruginosa ATCC 27853 = assay: Time-kill experiments in CAMHB with 2% mucin; type: cell-based, Pseudomonas aeruginosa
Protocol: Time-kill experiments were performed according to a modified CLSI method (National Committee for Clinical Laboratory Standards. M-26A. Villanova (Pa.): NCCLS, 1999). […] Bacterial cultures and antibiotic(s) were incubated at 37° C. in a shaking water bath (200 rpm) and killing activity assessed at 0, 1, 2, 4, 6 and 24 h. Antibiotics that reduced the original inoculum by ≧3-Log10 were considered bactericidal. Antibiotics that reduced the original inoculum by ≦2-Log10 were considered bacteriostatic.

E. coli = type: cell-based, Escherichia coli
Protocol: as §1

P. aeruginosa [3] = type: cell-based, Pseudomonas aeruginosa
Protocol: as §1

For `C[C@@H]1O[C@@H]1P(=O)(O)O` [Fosfomycin, fosfomycin disodium], the MIC (P. aeruginosa [1]; ATCC27853, P. aeruginosa ATCC 27853) was 4 mg/L, the MIC (P. aeruginosa [1]; P. aeruginosa C002) was 4 mg/L and the MIC (P. aeruginosa [1]; P. aeruginosa C003) was 16 mg/L. It also gave an MIC (P. aeruginosa [1]; P. aeruginosa C013) of 32 mg/L, an MIC (P. aeruginosa [1]; P. aeruginosa C014) of 8 mg/L and an inhibition at 3.2 µg/mL ([2]; 3.2 μg/mL) of 8%. The inhibition at 6.4 µg/mL ([2]; 6.4 μg/mL) was 14%, the inhibition at 12.8 µg/mL ([2]; 12.8 μg/mL) was 3% and the “Frequency of Resistance 4× MIC” value (S. aureus; S. aureus ATCC 29213, 4× MIC) was 2.6 × 10^−8. For the same molecule, the “Frequency of Resistance 8× MIC” value (S. aureus; S. aureus ATCC 29213, 8× MIC) was 5.0 × 10^−8, the “Frequency of Resistance 16× MIC” value (S. aureus; S. aureus ATCC 29213, 16× MIC) was <1.8 × 10^−10 and the “Frequency of Resistance 4× MIC” value (S. aureus; S. aureus C051, 4× MIC) was 3.0 × 10^−5. The “Frequency of Resistance 8× MIC” value (S. aureus; S. aureus C051, 8× MIC) was 3.6 × 10^−7, the “Frequency of Resistance 16× MIC” value (S. aureus; S. aureus C051, 16× MIC) was 8.4 × 10^−6 and the “Frequency of Resistance 4× MIC” value (S. aureus; S. aureus C053, 4× MIC) was 7.7 × 10^−3. The “Frequency of Resistance 8× MIC” value (S. aureus; S. aureus C053, 8× MIC) was 1.7 × 10^−7, the “Frequency of Resistance 16× MIC” value (S. aureus; S. aureus C053, 16× MIC) was 4.3 × 10^−6 and the “Frequency of Resistance 4× MIC” value (S. aureus; S. aureus C055, 4× MIC) was 2.5 × 10^−6. The “Frequency of Resistance 8× MIC” value (S. aureus; S. aureus C055, 8× MIC) was <4.3 × 10^−9, the “Frequency of Resistance 16× MIC” value (S. aureus; S. aureus C055, 16× MIC) was 8.2 × 10^−6 and the “Frequency of Resistance 4× MIC” value (S. aureus; S. aureus C057, 4× MIC) was 2.1 × 10^−5. The “Frequency of Resistance 8× MIC” value (S. aureus; S. aureus C057, 8× MIC) was 1.1 × 10^−7, the “Frequency of Resistance 16× MIC” value (S. aureus; S. aureus C057, 16× MIC) was 2.0 × 10^−7 and the “killing activity at 24 h” value (P. aeruginosa ATCC 27853; 24 h, FT4:1 16 μg/mL, fosfomycin 12.8 μg/mL, tobramycin 3.2 μg/mL, mucin, FIG. 4) was “re-growth of the bacterial culture”. For the same molecule, the killing activity (P. aeruginosa ATCC 27853; FT4:1 at 4×MIC (16 μg/mL), component weights fosfomycin 12.8 μg/mL, tobramycin 3.2 μg/mL, mucin, FIG. 4) was “bacteriostatic killing”, the “killing activity (bactericidal ≧3-Log10, bacteriostatic ≦2-Log10)” value (P. aeruginosa ATCC 27853; multiples of the MIC, FIG. 1-3) was “bacteriostatic” and the “Frequency of Resistance 4× MIC” value (E. coli; E. coli ATCC 25922, 4× MIC) was 1.9 × 10^−5. For the same molecule, the “Frequency of Resistance 8× MIC” value (E. coli; E. coli ATCC 25922, 8× MIC) was 6.0 × 10^−6, the “Frequency of Resistance 16× MIC” value (E. coli; E. coli ATCC 25922, 16× MIC) was 2.5 × 10^−5 and the “Frequency of Resistance 4× MIC” value (E. coli; E. coli C032, 4× MIC) was 4.4 × 10^−5. The “Frequency of Resistance 8× MIC” value (E. coli; E. coli C032, 8× MIC) was 7.8 × 10^−5, the “Frequency of Resistance 16× MIC” value (E. coli; E. coli C032, 16× MIC) was 2.1 × 10^−6 and the “Frequency of Resistance 4× MIC” value (E. coli; E. coli C036, 4× MIC) was 1.1 × 10^−6. The “Frequency of Resistance 8× MIC” value (E. coli; E. coli C036, 8× MIC) was 2.3 × 10^−6, the “Frequency of Resistance 16× MIC” value (E. coli; E. coli C036, 16× MIC) was 3.4 × 10^−6 and the “Frequency of Resistance 4× MIC” value (E. coli; E. coli C037, 4× MIC) was 1.9 × 10^−6. The “Frequency of Resistance 8× MIC” value (E. coli; E. coli C037, 8× MIC) was 2.9 × 10^−6, the “Frequency of Resistance 16× MIC” value (E. coli; E. coli C037, 16× MIC) was 8.6 × 10^−6 and the “Frequency of Resistance 4× MIC” value (E. coli; E. coli C294, 4× MIC) was 7.9 × 10^−5. The “Frequency of Resistance 8× MIC” value (E. coli; E. coli C294, 8× MIC) was 5.4 × 10^−5, the “Frequency of Resistance 16× MIC” value (E. coli; E. coli C294, 16× MIC) was 6.3 × 10^−5 and the “Frequency of Resistance 4× MIC” value (P. aeruginosa [3]; P. aeruginosa ATCC 27853, 4× MIC) was 7.2 × 10^−4. For the same molecule, the “Frequency of Resistance 8× MIC” value (P. aeruginosa [3]; P. aeruginosa ATCC 27853, 8× MIC) was 1.1 × 10^−5, the “Frequency of Resistance 16× MIC” value (P. aeruginosa [3]; P. aeruginosa ATCC 27853, 16× MIC) was 7.2 × 10^−5 and the “Frequency of Resistance 4× MIC” value (P. aeruginosa [3]; P. aeruginosa C002, 4× MIC) was 6.5 × 10^−3. For the same molecule, the “Frequency of Resistance 8× MIC” value (P. aeruginosa [3]; P. aeruginosa C002, 8× MIC) was 1.1 × 10^−4, the “Frequency of Resistance 16× MIC” value (P. aeruginosa [3]; P. aeruginosa C002, 16× MIC) was 4.6 × 10^−4 and the “Frequency of Resistance 4× MIC” value (P. aeruginosa [3]; P. aeruginosa C003, 4× MIC) was 1.1 × 10^−6. For the same molecule, the “Frequency of Resistance 8× MIC” value (P. aeruginosa [3]; P. aeruginosa C003, 8× MIC) was 9.0 × 10^−5, the “Frequency of Resistance 16× MIC” value (P. aeruginosa [3]; P. aeruginosa C003, 16× MIC) was 1.3 × 10^−4 and the “Frequency of Resistance 4× MIC” value (P. aeruginosa [3]; P. aeruginosa C013, 4× MIC) was 9.2 × 10^−3. For the same molecule, the “Frequency of Resistance 8× MIC” value (P. aeruginosa [3]; P. aeruginosa C013, 8× MIC) was 1.3 × 10^−5, the “Frequency of Resistance 16× MIC” value (P. aeruginosa [3]; P. aeruginosa C013, 16× MIC) was 1.3 × 10^−7 and the “Frequency of Resistance 4× MIC” value (P. aeruginosa [3]; P. aeruginosa C014, 4× MIC) was 1.4 × 10^−4. For the same molecule, the “Frequency of Resistance 8× MIC” value (P. aeruginosa [3]; P. aeruginosa C014, 8× MIC) was 1.3 × 10^−6 and the “Frequency of Resistance 16× MIC” value (P. aeruginosa [3]; P. aeruginosa C014, 16× MIC) was 1.8 × 10^−6.
